tested on: corneodesmosine; experiment: Degradation of corneodesmosines in acetonic powders of stratum corneum (immunoblotting with antibody G36-19, chemiluminescence); format: biochemical, human; conditions: aqueous solution containing 2% of active agent, pH 8.0, 17 h incubation at 30° C., 33 and 46 kD bands, versus control without active agent
Method: Method for evaluating desquamation by measuring the degradation of corneodesmosines The ability of aminosulfonic derivatives of formula (I) according to the invention to promote desquamation by degradation of corneodesmosines is studied in this example. […] It is studied by immunoblotting after separation by electrophoresis and transfer onto a membrane. […] The nylon-varnish strips associated with the corneocytes are immersed in 1 ml/cm^2 of acetone in order to detach the corneocytes. The mixture is filtered and then rinsed three times with the same volume of acetone in order to remove all trace of varnish. Finally, the mixture is dried under vacuum: acetonic powders of stratum corneum are thus obtained. The acetonic powders are divided into 1 mg aliquots. 100 μl of the aqueous solutions containing 2% of active agent adjusted to pH 8.0 are added. […] Two incubation times are studied: t=0 and t=17 h. In the latter case, the incubation takes place at 30° C. with stirring. After incubation, the mixtures are centrifuged for 10 minutes at 10 000×g. The supernatant is removed and replaced with 100 μl of 0.0625 M Tris/HCl pH 6.8 Laemmli buffer, 2% SDS, 200 mM DTT, 10% glycerol, which allows the proteins to be extracted. The mixture is boiled for 10 minutes at 100° C. and then ground in a Potter mill. The mixture is centrifuged for 10 minutes at 10 000×g and the supernatant is then collected. It contains the corneodesmosomal proteins. The total proteins are assayed according to the Bradford method (Biorad kit). This allows an adjustment to 0.6 mg/ml of the samples and a real comparison of the treatments. The samples and also a Rainbow (Amersham Pharmacia Biotech) low molecular weight standard at 1⁄3 are separated by electrophoresis on gel containing 12% acrylamide for 30 minutes at 100 V and then for 1 hour at 200 V. After the electrophoresis, the proteins are transferred onto an Immobilon-P membrane (Millipore) for 3 hours at 60 V. The membrane is then incubated for twice 15 minutes in TBS-TL buffer: 25 mM Tris, 0.15M NaCi pH 7.2, 0.05% Tween 20, 0.5% skimmed milk powder, in order to block the non-specific sites. Incubation with the antibody [MUT]-19 at 1/12500 is performed overnight at 4° C. After two rinses of 5 minutes in TBS-TL buffer, the membrane is incubated with a goat anti-mouse IG(H+L) antibody peroxidase conjugate (Biorad) at 1/4000 for 1 hour 30 minutes at ambient temperature. After several rinses of 5 minutes in TBS-TL buffer and then TBS buffer (without milk or Tween), the membrane is incubated for 1 minute in 10 ml of ECL reagent (Amersham Pharmacia Biotech). The chemiluminescence of the corneodesmosine bands is measured with the FluorS Multimager (Biorad). The 33 and 46 kD bands are quantified with the Quantity-one software (Biorad). […] This control takes into account the natural degradation of the corneodesmosines which takes place during the incubation.

Structure (SMILES) | Percentage increase in the degradation of corneodesmosine [%]
O=S(=O)(O)CCCN1CCOCC1 [3-Morpholinopropanesulfonic acid, 3-morpholinopropanesulfonic acid] | 39
O=S(=O)(O)CCN1CCN(CCO)CC1 [4-(2-hydroxyethyl)piperazine-1-ethanesulfonic acid] | 65
NCC(=O)O [Glycine, reference compound] | 51
O=S(=O)(O)CCN1CCN(CCS(=O)(=O)O)CC1 [piperazine-1,4-bis(2-ethanesulfonic acid)] | 65
O=S(=O)(O)CC(O)CN1CCN(CC(O)CS(=O)(=O)O)CC1 (stereo not drawn) [piperazine-1,4-bis(2-hydroxypropanesulfonic acid)] | 63

tested on: desmoglein (corneodesmosomal protein); experiment: not given; conditions: shown in EP-A2-0,852,949 (Shiseido); cited from earlier work

Structure (SMILES) | Effect on the degradation of desmoglein (in words)
NCC(=O)O [Glycine, reference compound] | promotes the degradation of desmoglein

— US20030232063A1, “Aminosulfonic acid compounds for promoting desquamation of the skin” (SOCIETE L'OREAL S.A., priority 2000, published 2003)
